Assay results reported in PMC10762035, “Molecular basis of human trace amine-associated receptor 1 activation” (Nature Communications, 2024).
Changes are numbered by the printed parent chain. “And” between values parts separate entries of the source, which are not always exact repeats. Equal values may be shown once. Read-outs that look alike come from different tables or passages of the source.

What was measured:
Type in all cases: cell-based
[1] = target: T1, hTA1 C96S (Homo sapiens, UniProt Q96RJ0, C96S); test: GloSensor cAMP accumulation assay, C96S mutant; settings: log[Compound]
T1 construct: expressed in transfected cells; host or cells: HEK293T
T1 sequence (Q96RJ0 1-339 C96S): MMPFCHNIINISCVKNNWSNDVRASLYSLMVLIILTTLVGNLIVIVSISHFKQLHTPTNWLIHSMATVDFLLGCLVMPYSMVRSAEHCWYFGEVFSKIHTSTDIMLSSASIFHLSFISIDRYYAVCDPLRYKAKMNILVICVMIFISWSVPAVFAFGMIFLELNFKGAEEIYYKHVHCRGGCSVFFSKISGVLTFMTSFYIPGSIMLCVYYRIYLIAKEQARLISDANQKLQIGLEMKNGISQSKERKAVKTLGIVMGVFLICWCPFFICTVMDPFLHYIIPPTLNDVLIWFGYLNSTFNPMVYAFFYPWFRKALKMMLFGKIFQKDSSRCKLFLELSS

[2] = target: T2, hTA1 T271A (Homo sapiens, UniProt Q96RJ0, T271A); test: GloSensor cAMP accumulation assay, T271A mutant
T2 construct: expressed in transfected cells; host or cells: HEK293T
T2 sequence (Q96RJ0 1-339 T271A): T1 sequence (Q96RJ0 1-339 C96S) with S96C, T271A

[3] = target: T3, hTA1 I290N (Homo sapiens, UniProt Q96RJ0, I290N); test: GloSensor cAMP accumulation assay, I290N mutant;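 also: cells transiently co-expressing hTA1 and the GloSensor cAMP biosensor, luminescence read 30 min after compound addition at room temperature, efficacy scaled to the maximal β-PEA response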
T3 construct: expressed in transfected cells; host or cells: HEK293T
T3 sequence (Q96RJ0 1-339 I290N): T1 sequence (Q96RJ0 1-339 C96S) with S96C, I290N

[4] = target: T4, hTA1 F195T (Homo sapiens, UniProt Q96RJ0, F195T); test: GloSensor cAMP accumulation assay, F195T mutant;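 also: cells transiently co-expressing HA-FLAG-tagged hTA1 and the GloSensor cAMP biosensor, luminescence read 30 min after agonist addition at room temperature, concentration-response fitted by nonlinear regression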
T4 construct: expressed in transfected cells; host or cells: HEK293T
T4 sequence (Q96RJ0 1-339 F195T): T1 sequence (Q96RJ0 1-339 C96S) with S96C, F195T

[5] = target: T5, hTA1 C88/178S (Homo sapiens, UniProt Q96RJ0, C178S/C88S); test: GloSensor cAMP accumulation assay, C88S/C178S double mutant; settings: for Normalized Luminescence Counts (N=2): log[Compound], single replicate values
T5 construct: expressed in transfected cells; host or cells: HEK293T
T5 sequence (Q96RJ0 1-339 C88S/C178S): T1 sequence (Q96RJ0 1-339 C96S) with C88S, S96C, C178S

[6] = C88S, C178S, each row is one independent experiment, 3 replicates

NCCc1ccc(O)cc1 [TYR, tyramine]
Normalized Luminescence Counts ([1]; C96S, M = -5, single replicates (N=2)): 1.4045 and 3.382 and -0.5726 and -0.7614 and 6.985 and 24.4145
Normalized Luminescence Counts ([1]; C96S, M = -5.522, single replicates (N=2)): 0.08646 and 2.064 and -0.5726 and 5.048 (2×) and 10.8582
Normalized Luminescence Counts ([1]; C96S, M = -6, single replicates (N=2)): -1.891 and 1.4045 and -2.55 and -0.7614 and 5.048 and -8.508
Normalized Luminescence Counts ([1]; C96S, M = -6.522, single replicates (N=2)): -0.5726 and -3.209 and -2.55 and -6.571 (2×) and -2.698
Normalized Luminescence Counts ([1]; C96S, M = -7, single replicates (N=2)): 0.08646 and 0.7455 and -2.55 and -0.7614 and -4.6346 and -2.698
Normalized Luminescence Counts ([1]; C96S, M = -7.522, single replicates (N=2)): -1.232 and -0.5726 and 0.7455 and 1.175 and -2.698 and 3.112
Normalized Luminescence Counts ([1]; C96S, M = -8, single replicates (N=2)): 2.064 and 0.7455 and -0.5726 and 3.112 and 24.4145 and -12.381
Normalized Luminescence Counts ([1]; C96S, M = -8.522, single replicates (N=2)): -1.891 and 0.08646 and -1.232 and 6.985 and 10.8582 and 12.7948
Normalized Luminescence Counts ([1]; C96S, M = -9, single replicates (N=2)): -1.232 and -0.5726 and -1.891 and 1.175 and -4.6346 and 6.985
Normalized Luminescence Counts ([1]; C96S, M = -9.522, single replicates (N=2)): -3.209 and -0.5726 and -3.868 and 8.922 and 55.4002 and 6.985
Normalized Luminescence Counts ([1]; C96S, M = -10, single replicates (N=2)): -1.232 and 0.08646 (2×) and 5.048 and 3.112 and 12.7948
Normalized Luminescence Counts ([1]; C96S, M = -10.522, single replicates (N=2)): -0.5726 and 2.064 and 0.08646 and 6.985 and -4.6346 and -0.7614
Normalized Luminescence Counts ([1]; C96S, M = -11, single replicates (N=2)): 0.7455 and 2.723 and -1.232 and 3.112 (2×) and 10.8582
Normalized Luminescence Counts ([1]; C96S, M = -11.522, single replicates (N=2)): -0.5726 and 3.382 and -2.55 and -8.508
Normalized Luminescence Counts ([1]; M = -11.522, single replicates, mutant block above C178S): -0.1784 and -0.1556 and -0.3377 and 0.3752 and 3.634 and 2.245
Normalized Luminescence Counts ([1]; M = -12, single replicates, mutant block above C178S): 0.04925 and -0.1556 and -0.3149 and 0.2684 and 2.352 and 1.711
Normalized Luminescence Counts ([1]; M = -12.522, single replicates, mutant block above C178S): -0.4515 and -0.588 and -0.5653 and 1.283 and 1.3903 and 1.07
reduction in potency vs wild type ([2]; T271A): about 10 fold
EC50 ([2]; T271A mutant, Figure 5B, each row one independent experiment (3 replicates), read-out: pEC50 values, Mean (converted)): 7630 nM and 3080 nM
Emax values, Mean ([2]; T271A mutant, Figure 5B, β-PEA = 100, each row one independent experiment (3 replicates)): 138.16 and 109.079
EC50 ([2]; T271A, n=2, read-out: EC50): 4850 nM
Emax ([2]; T271A, n=2, read-out: Span ± SEM (Emax normalized to β-PEA)): 124%
EC50 ([3]; I290N, n=2, read-out: EC50): 492 nM
Emax ([3]; I290N, n=2, read-out: Span ± SEM (Emax normalized to β-PEA)): 99.42 ± 0.19%
cAMP accumulation response, single replicate values (source data, Supplementary Figure 5) ([3]; hTA1 I290N (N=2), log[Compound], M = -5): 84.4195 and 103.709 and 90.7072 and 91.6949
ΔpEC50 values (each mutant value - WT average), Mean ([3]; hTA1 I290N mutant minus WT average): -0.07565 and -0.07195
EC50 ([3]; hTA1 I290N mutant, Figure 3B source data, each grid row a separate experiment, 3 replicates, read-out: pEC50 values (Mean) (converted)): 494 nM and 490 nM
Emax values, Mean ([3]; hTA1 I290N mutant, β-PEA set to 100, each grid row a separate experiment, 3 replicates): 99.2249
Emax ([3]; hTA1 I290N mutant, β-PEA set to 100, each grid row a separate experiment, 3 replicates, read-out: Emax values (Mean)): 99.6%
increase in potency vs wild type ([4]; F195T): 26 fold
EC50 ([4]; F195T mutant, Figure 5B, each row one independent experiment (3 replicates), read-out: pEC50 values, Mean (converted)): 10.2 nM and 24.6 nM
Emax values, Mean ([4]; F195T mutant, Figure 5B, β-PEA = 100, each row one independent experiment (3 replicates)): 119.677 and 98.2455
EC50 ([4]; F195T, n=2, read-out: EC50): 6.34 nM
Emax ([4]; F195T, n=2, read-out: Span ± SEM (Emax normalized to β-PEA)): 109%
EC50 ([5]; C88/178S, n=2, read-out: EC50): 516 nM
ΔEmax values (each mutant value - WT average), Mean [5, 6]: 5.171 and -4.429
ΔpEC50 values (each mutant value - WT average), Mean [5, 6]: -0.1652 and -0.02439
EC50 ([5]; C88S, C178S, each row is one independent experiment, 3 replicates, read-out: pEC50 values, Mean (converted)): 607 nM and 439 nM
Normalized Luminescence Counts (N=2) ([5]; C88S, C178S, M = -5): 80.5108 and 118.73 and 96.3411 and 73.7167 and 119.633 and 101.508
Normalized Luminescence Counts (N=2) ([5]; C88S, C178S, M = -5.522): 83.5638 and 94.9277 and 84.0161 and 70.847 and 65.5606 and 81.5707
Normalized Luminescence Counts (N=2) ([5]; C88S, C178S, M = -6): 61.2318 and 70.3907 and 58.4615 and 74.6229 and 67.8262 and 50.6077
Normalized Luminescence Counts (N=2) ([5]; C88S, C178S, M = -6.522): 35.2248 and 33.0764 and 35.0552 and 41.5453 and 51.665 and 30.8216
Normalized Luminescence Counts (N=2) ([5]; C88S, C178S, M = -7): 17.4722 and 16.0588 and 18.7726 and 21.6082 and 20.853 and 15.4156
Normalized Luminescence Counts (N=2) ([5]; C88S, C178S, M = -7.522): 4.582 and 7.069 and 6.674 and 4.541 and 4.692 and 3.332
Normalized Luminescence Counts (N=2) ([5]; C88S, C178S, M = -8): 0.3416 and 1.077 and 0.3981 and 2.124 and 2.577 and 4.239
Normalized Luminescence Counts (N=2) ([5]; C88S, C178S, M = -8.522): 0.2285 and 0.4547 and 1.1331 and 0.9158 and 0.6137 and 2.577
Normalized Luminescence Counts (N=2) ([5]; C88S, C178S, M = -9): -0.6195 and -0.1107 and 0.3416 and -1.501 and -1.35 and 3.6345
Normalized Luminescence Counts (N=2) ([5]; C88S, C178S, M = -9.522): -0.5065 and -0.563 and -0.05417 and -0.8967 (2×) and -1.652
Normalized Luminescence Counts (N=2) ([5]; C88S, C178S, M = -10): -0.1107 and -0.9588 (2×) and -1.35 and -0.4436 and -0.1415
Normalized Luminescence Counts (N=2) ([5]; C88S, C178S, M = -10.522): -0.6195 and -0.1672 and 0.0589 and -1.954 and -1.048 and 1.067
Normalized Luminescence Counts (N=2) ([5]; C88S, C178S, M = -11): -0.05417 and 0.5677 and 0.3981 and -1.652 and -0.8967 and 0.7648
Normalized Luminescence Counts (N=2) ([5]; C88S, C178S, M = -11.522): 0.7373 and 0.9635 and 0.285 and -0.8967 (2×) and 0.1606
Normalized Luminescence Counts (N=2) ([5]; C88S, C178S, M = -12): -0.563 and 1.02 and 0.7939 and -0.1415 and -1.048 and 0.7648
Normalized Luminescence Counts (N=2) ([5]; C88S, C178S, M = -12.522): 0.2285 and 0.8504 and 0.3981 and -0.8967 and -0.4436 and -1.199
Emax values, Mean ([5]; C88S, C178S, normalized (β-PEA = 100), each row is one independent experiment, 3 replicates): 104.155 and 94.5547
Emax ([5]; read-out: Span ± SEM (Emax normalized to β-PEA)): 99.3 ± 4.8%
